{"source": "patent US20020155172A1", "about": "“Methods and compounds for decreasing cell toxicity or death” (priority 2000, published 2002)", "key": {"[1]": {"system": "HeLa cells transfected with Q79-GFP", "assay": "Cellular ATP levels (ATPLite) in Q79 expressing HeLa cells", "assay_type": "cell-based", "method": "We also investigated whether Congo red prevented other cellular events during cell death, including ATP depletion, caspase activation, and protein synthesis inhibition. HeLa cells were transfected with the Q79-GFP construct. Forty-eight hours later, the viability of cells expressing expanded polyglutamine repeats was determined by measuring cellular ATP levels, suing an ATPLite™ kit, according to the directions provided by the manufacturer (Packard, Co.) (FIG. 5A).\nTo determine the effect of Congo red (100 μM) on polyglutamine-induced cell toxicity. HeLa cells were transiently transfected with Q79-GFP, and six hours later were administered various concentrations of Congo red. Cell viability was assayed 72 hours after transfection, by measuring the level of ATP in each sample. ATP levels in cells expressing Q79 were determined by using the ATPLite™ kit as recommended by the manufacturer (Packard, Inc.). Briefly, cells were transfected with Q79 and treated 6 hours after transfection. Forty-two hours later, the levels of ATP were determined. (FIG. 5C).\nA high-throughput method for identifying compounds that decrease cell toxicity or death has been designed. In this method, cells were seeded at 2×10^5 cells in 100 mm dishes. The next day the plated cells were transiently transfected with a plasmid encoding an expanded polyglutamine repeat, for example, Q79. Three hours later, transfection efficiency was assessed. Plates containing cells having 10-20% transfection efficiency at this 3 hour time point were trypsinized and re-plated at 600 or at 1500 cells per well in 384 well plates with clear bottoms. After 6 hours, the candidate compounds were added to the multi-well plates. The cells were cultured for 48 hours and ATP levels were determined using an ATPLite™ kit. Data was then expressed in either arbitrary units, or as relative ratio of ATP levels in Q79 transfected cells in compound-treated relative to vehicle-treated samples.\nDerivatives of Congo red (commercially available from Sigma/Aldrich) were tested for their ability to alter cell toxicity and death by measuring ATP depletion and luciferase expression. The assay was carried out as described above for the high-throughput identification of compounds. Briefly, HeLa cells were transiently transfected with a Q79/GFP plasmid and were subsequently treated with various concentrations of Congo red, or 25 μM of each of Direct Orange 6, Direct Red 1, Direct Orange 1, Direct Black 51, Direct Orange 8, Direct Yellow 26, Direct Yellow 28, or Direct Blue 158. Drug treatment continued for 6 hours and then 48 hours later, ATP levels were measured in these cells and compared to the ATP levels in cells that were transiently transfected with GFP only, and also received the compound."}, "[2]": {"system": "R62 mice", "assay": "Dyskinesia of the hindlimbs, gait and stride length (ink test)", "assay_type": "in vivo", "from_the_text": "FIG. 10D is a set of scanned images of the effect of Congo red or PBS (vehicle) on motor coordination, as assessed by the “ink” test in HD transgenic mice three weeks after Congo red or vehicle treatment. The “ink” test was used to determine the changes in stride length and the overlap of steps characteristic of movement disorders using red and green food coloring to mark the front and back paws, respectively. Changes in stride length of individual mice from one set of paws (brackets) and the differences in the step overlapping patterns (open arrows) three weeks after vehicle or Congo red treatment were assayed.\nFIG. 10E is a table of the quantification of changes in stride length in HD transgenic mice treated with either Congo red or PBS (vehicle) (#, n=5 in each cohort), assessed as described in FIG. 10D.\nIn addition, the ability of Congo red to inhibit the formation as well as to disrupt preformed polyglutamine oligomers allowed us to examine the role of polyglutamine aggregates in neuronal dysfunction and degeneration characteristic of polyglutamine expansion diseases. In these studies, we used the animal model of Huntington's disease (R62), which expresses the truncated form of huntingtin with 139 CAG repeats Mangiarini et al. (supra). We took advantage of our finding that in addition to inhibiting polyglutamine oligomerization, Congo red also disrupts pre-formed oligomers, thus allowing assessment of the impact of Congo red on disease progression after formation of polyglutamine aggregates and the onset of symptoms. R62 transgenic mice and CBAxC57B1/6 F1 wild type littermates were obtained from Jackson Laboratories (Bar Harbor, Me.) at the age of five weeks. […]\nThe initial abnormal neurological signs of R62 mice include dyskinesia of the hindlimbs when mice were suspended by the tail, and irregular gait. […] The effect of Congo red on motor performance in R62 mice was also assessed by rotarod studies. […]"}, "[3]": {"system": "HeLa cells transfected with Q79-GFP", "assay": "Q79-GFP aggregates in HeLa cells by fluorescence microscopy", "assay_type": "cell-based", "conditions": "100 μM", "method": "FIG. 5I is a set of scanned images of HeLa cells expressing Q79-GFP and subsequently treated with Congo red (100 μM), or ZVAD (100 μM), as detected by fluorescence microscopy.\nChanges in energy metabolism have been detected in brains of pre-symptomatic HD animal models, and in pre-symptomatic patients. We detected a pronounced decline in ATP levels upon expanded polyglutamine expression in cells as early as 24 hours. […] Expression of Q79-GFP in HeLa cells transfected with Q79-GFP and subsequently treated with Congo red (100 μM), or ZVAD (100 μM), is shown in FIG. 51."}, "[4]": {"conditions": "ink test three weeks after treatment"}}, "data": [{"compound": "Nc1c(/N=N/c2ccc(-c3ccc(/N=N/c4cc(S(=O)(=O)O)c5ccccc5c4N)cc3)cc2)cc(S(=O)(=O)O)c2ccccc12", "note": "[Congo red, diphenyldiazo-bis-alpha-napthylaminesulfonate]", "values": [{"measurement": "protection from polyglutamine repeat-induced cell death (ATP levels)", "setting": "[1]; 25 or 50 μM, Q79-GFP", "result": "very effective at protecting cells"}, {"measurement": "ATP loss", "setting": "[1]; HA-tagged Q79-GFP, caspase-8 experiment", "result": "significantly inhibited ATP loss"}, {"measurement": "concentration at which protection from polyglutamine repeat-induced cell death begins (ATP levels)", "setting": "[1]; Q79-GFP, treated six hours after transfection", "result": 12, "unit": "µM"}, {"measurement": "dyskinesia of the hindlimbs", "setting": "[2]", "result": "significantly inhibited the dyskinesia of the hindlimbs"}, {"measurement": "gait", "setting": "[2]; [4]", "result": "preserved the normal gait"}, {"measurement": "stride length", "setting": "[2]; [4]", "result": "preserved the normal gait (FIG. 10D) and stride length"}, {"measurement": "polyglutamine aggregates in cells", "setting": "[3]", "result": "displayed fewer polyglutamine aggregates"}]}]}
